In patent US4894458A, “Quinolonecarboxylic acid derivatives and their preparation” (Kyorin Pharmaceutical Co., Ltd., priority 1986, dated 1990):
In brackets after ≈: the same amount, converted by molar mass. Like-named read-outs stand apart in the source and are kept apart here.

Assays:
Format in all cases: cell-based
[1] = tested on: Bacillus subtilis PCI 219; experiment: In vitro antibacterial activity (aerobic bacteria), MIC; conditions: PCI219
[2] = tested on: Acinetobacter anitratus IID 876; experiment: as above; conditions: Acinetobacter calcoaceticus, IID876, Gram -, 10^6 cells/ml, read-out: MIC
Method: (§1) Minimal inhibitory concentrations (MICs) were determined in accordance with the method recommended by Japan Society of Chemotherapy.

E. coli ATCC 10536 = experiment: as above; conditions: Escherichia coli, ATCC10536, Gram -, 10^6 cells/ml
Method: as §1

K. pneumoniae 1-220S = experiment: as above; conditions: Klebsiella pneumoniae, 1220S, Gram -, 10^6 cells/ml
Method: as §1

[3] = tested on: Morganella morganii IID 602; experiment: as above; conditions: Morganella morganii, IID602, Gram -, 10^6 cells/ml, read-out: MIC
Method: as §1

P. mirabilis IID 994 = experiment: as above; conditions: Proteus mirabilis, IID994, Gram -, 10^6 cells/ml
Method: as §1

[4] = tested on: Proteus vulgaris IFO 3167; experiment: as above; conditions: IFO3167, Gram -, 10^6 cells/ml
Method: as §1

[5] = tested on: Pseudomonas aeruginosa V-1; experiment: as above; conditions: Pseudomonas aeruginosa, V1, aerobic; Gram -; 10^6 cells/ml; read-out: MIC
Method: as §1

[6] = tested on: S. aureus IID 670 (Terajima); experiment: as above; conditions: Staphylococcus aureus, IID670, Gram +, 10^6 cells/ml
Method: as §1

S. epidermidis IID 866 = experiment: as above; conditions: Staphylococcus epidermidis, IID866, Gram +, 10^6 cells/ml
Method: as §1

[7] = tested on: Serratia marcescens IID 618; experiment: as above; conditions: IID618, Gram -, 10^6 cells/ml
Method: as §1

Shigella sonnei IID 969 = experiment: as above; conditions: IID969, Gram -, 10^6 cells/ml
Method: as §1

[8] = tested on: Staphylococcus aureus 209 P; experiment: as above; conditions: Gram +, 10^6 cells/ml
Method: as §1

[9] = tested on: Escherichia coli NIHJ JC-2; experiment: as above; conditions: NIHJJC2, aerobic, Gram -, 10^6 cells/ml
[10] = tested on: Klebsiella pneumoniae KY(GN)6445; experiment: as above
[11] = tested on: Enterobacter cloacae IID 977; experiment: as above; conditions: IID977
[12] = tested on: Citrobacter freundii IID 976; experiment: as above; conditions: Citrobacter freundii
[13] = tested on: Salmonella enteritidis IID 604; experiment: as above; conditions: Salmonella enterica
P. aeruginosa IFO 12689 = experiment: as above; conditions: Pseudomonas aeruginosa, IFO12689
P. aeruginosa IID 1210 = experiment: as above; conditions: Pseudomonas aeruginosa, IID1210, aerobic; Gram -; 10^6 cells/ml
P. cepacia GIFU 518 = experiment: as above; conditions: Burkholderia cepacia, GIFU518
P. maltophilia GIFU 2491 = experiment: as above; conditions: Stenotrophomonas maltophilia, GIFU2491
[14] = tested on: Yersinia enterocolitica IID 981; experiment: microbe, parasite or virus in culture; conditions: IID981
[15] = tested on: Alcaligenes faecalis 0114002; experiment: In vitro antibacterial activity (aerobic bacteria), MIC; conditions: Alcaligenes faecalis, 0114002, aerobic; Gram -; 10^6 cells/ml
[16] = tested on: Bacteroides fragilis GM 7000; experiment: In vitro antibacterial activity (anaerobic bacteria), MIC; conditions: GM7000
B. fragilis 0558 = experiment: as above; conditions: Bacteroides fragilis
B. fragilis 25285 = experiment: as above; conditions: Bacteroides fragilis
B. distasonis 8503 = experiment: as above; conditions: Parabacteroides distasonis, Gram -, 10^6 cells/ml
[17] = tested on: B. thetaiotaomicron (0661); experiment: as above; conditions: Bacteroides thetaiotaomicron
[18] = tested on: Fusobacterium necrophorum S-45; experiment: as above; conditions: S45, anaerobic, Gram -, 10^6 cells/ml, read-out: MIC
F. varium KYA 8501 = experiment: as above; conditions: Fusobacterium varium, KYA8501
[19] = tested on: Eubacterium lentum GAI 5242; experiment: as above; conditions: Eggerthella lenta, GAI5242
[20] = tested on: Propionibacterium acens 11828; experiment: as above
[21] = tested on: Peptococcus magnus KY 017; experiment: as above; conditions: Finegoldia magna, KY017, Gram +, 10^6 cells/ml, read-out: MIC
Method: as §1

[22] = tested on: Clostridium difficile I-E; experiment: as above; conditions: Clostridioides difficile
C. perfringens KYA 13123 = experiment: microbe, parasite or virus in culture; conditions: Clostridium perfringens, KYA13123
C. ramosum = experiment: In vitro antibacterial activity (anaerobic bacteria), MIC; conditions: Thomasclavelia ramosa, anaerobic, Gram +, 10^6 cells/ml
[23] = tested on: Peptostreptococcus anaerobius KYA 27337; experiment: as above
Pst micros UPI 5464-1 = experiment: microbe, parasite or virus in culture
[24] = tested on: Veillonella parvula KYA 10790; experiment: In vitro antibacterial activity (anaerobic bacteria), MIC; conditions: KYA10790
[25] = aerobic, Gram -, 10^6 cells/ml, read-out: MIC
[26] = anaerobic, Gram -, 10^6 cells/ml, read-out: MIC
[27] = anaerobic, Gram +, 10^6 cells/ml, read-out: MIC
[28] = IID976, aerobic, Gram -, 10^6 cells/ml

SMILES | MIC [1] [µg/mL] | MIC [2] [µg/mL] | MIC (E. coli ATCC 10536) [ng/mL] | MIC (K. pneumoniae 1-220S) [µg/mL] | MIC [3] [µg/mL] | MIC (P. mirabilis IID 994) [µg/mL] | MIC [4] [ng/mL] | MIC [5] [µg/mL] | MIC [6] [µg/mL] | MIC (S. epidermidis IID 866) [µg/mL] | MIC [7] [µg/mL] | MIC (Shigella sonnei IID 969) [ng/mL] | MIC [8] [µg/mL] | MIC [9] [ng/mL] | MIC [10] [µg/mL] | MIC [11] [µg/mL] | MIC [13] [µg/mL] | MIC (P. aeruginosa IID 1210) [µg/mL] | MIC [14] [µg/mL] | MIC [15] [µg/mL] | further results
CCn1cc(C(=O)O)c(=O)c2cc(F)c(N3CCC(N)C3)c(C)c21 (stereo not shown) [Exp. 25, 7-(3-Amino-1-pyrrolidinyl)-1-ethyl-6-fluoro-1,4-dihydro-8-methyl-4-oxo-3-quinolinecarboxylic acid] | 0.1 (≈ 0.3 µM) | 0.78 (≈ 2.34 µM) | 25 (≈ 0.075 µM) | 0.1 (≈ 0.3 µM) | 0.2 (≈ 0.6 µM) | 0.05 (≈ 0.15 µM) | 12.5 (≈ 0.0375 µM) | 0.39 (≈ 1.17 µM) | 0.2 (≈ 0.6 µM) | 0.2 (≈ 0.6 µM) | 0.05 (≈ 0.15 µM) | 50 (≈ 0.15 µM) | 0.2 (≈ 0.6 µM) | 12.5 (≈ 0.0375 µM) | 0.1 (≈ 0.3 µM) | 0.1 (≈ 0.3 µM) | 0.05 (≈ 0.15 µM) | 0.78 (≈ 2.34 µM) | 0.1 (≈ 0.3 µM) | 0.78 (≈ 2.34 µM) | MIC ([12]; IID976): 0.05 µg/mL (≈ 0.15 µM); MIC (P. aeruginosa IFO 12689; [25]): 1.56 µg/mL (≈ 4.68 µM); MIC (P. cepacia GIFU 518; [25]): 1.56 µg/mL (≈ 4.68 µM); MIC (P. maltophilia GIFU 2491; [25]): 1.56 µg/mL (≈ 4.68 µM); MIC [16]: 3.13 µg/mL (≈ 9.39 µM); MIC (B. fragilis 0558; [26]): 1.56 µg/mL (≈ 4.68 µM); MIC (B. fragilis 25285; [26]): 1.56 µg/mL (≈ 4.68 µM); MIC (B. distasonis 8503; read-out: MIC): 6.25 µg/mL (≈ 18.7 µM); MIC [17, 26]: 6.25 µg/mL (≈ 18.7 µM); MIC [18]: 1.56 µg/mL (≈ 4.68 µM); MIC (F. varium KYA 8501; [26]): 6.25 µg/mL (≈ 18.7 µM); MIC [19]: 0.78 µg/mL (≈ 2.34 µM); MIC [20, 27]: 12.5 µg/mL (≈ 37.5 µM); MIC [21]: 0.39 µg/mL (≈ 1.17 µM); MIC [22, 27]: 6.25 µg/mL (≈ 18.7 µM); MIC (C. perfringens KYA 13123): 0.78 µg/mL (≈ 2.34 µM); MIC (C. ramosum; read-out: MIC): 12.5 µg/mL (≈ 37.5 µM); MIC ([23]; KYA27337, anaerobic, Gram +, 10^6 cells/ml, read-out: MIC): 1.56 µg/mL (≈ 4.68 µM); MIC (Pst micros UPI 5464-1; anaerobic, Gram +, 10^6 cells/ml): 0.39 µg/mL (≈ 1.17 µM); MIC [24]: 0.39 µg/mL (≈ 1.17 µM)
Cc1c(N2C[C@@H](C)[C@@H](N)C2)c(F)cc2c(=O)c(C(=O)O)cn(C3CC3)c12 (relative stereo) [Ex. 28, 7-(3,4-cis-3-Amino-4-methyl-1-pyrrolidinyl)-1-cyclopropyl-6-fluoro-1,4-dihydro-8-methyl-4-oxo-3-quinolinecarboxylic acid] | 0.0125 (≈ 0.0348 µM) | 0.05 (≈ 0.139 µM) | 6.3 (≈ 0.0175 µM) | 0.05 (≈ 0.139 µM) | 0.025 (≈ 0.0696 µM) | 0.025 (≈ 0.0696 µM) | 6.3 (≈ 0.0175 µM) | 0.1 (≈ 0.278 µM) | 0.025 (≈ 0.0696 µM) | 0.05 (≈ 0.139 µM) | 0.05 (≈ 0.139 µM) | 6.3 (≈ 0.0175 µM) | 0.025 (≈ 0.0696 µM) | 6.3 (≈ 0.0175 µM) | 0.0125 (≈ 0.0348 µM) | 0.025 (≈ 0.0696 µM) | 0.025 (≈ 0.0696 µM) | 0.39 (≈ 1.09 µM) | 0.0125 (≈ 0.0348 µM) | 0.1 (≈ 0.278 µM) | MIC [12, 28]: 0.0125 µg/mL (≈ 0.0348 µM); MIC (P. aeruginosa IFO 12689): 0.39 µg/mL (≈ 1.09 µM); MIC (P. cepacia GIFU 518; aerobic, Gram -, 10^6 cells/ml): 0.39 µg/mL (≈ 1.09 µM); MIC (P. maltophilia GIFU 2491): 0.1 µg/mL (≈ 0.278 µM); MIC [16]: 0.2 µg/mL (≈ 0.556 µM); MIC (B. fragilis 0558): 0.1 µg/mL (≈ 0.278 µM); MIC (B. fragilis 25285): 0.1 µg/mL (≈ 0.278 µM); MIC (B. distasonis 8503): 0.39 µg/mL (≈ 1.09 µM); MIC [17]: 0.2 µg/mL (≈ 0.556 µM); MIC (F. varium KYA 8501): 0.78 µg/mL (≈ 2.17 µM); MIC [19]: 0.05 µg/mL (≈ 0.139 µM); MIC [20]: 0.78 µg/mL (≈ 2.17 µM); MIC [21]: 0.025 µg/mL (≈ 0.0696 µM); MIC [22]: 0.39 µg/mL (≈ 1.09 µM); MIC (C. perfringens KYA 13123): 0.1 µg/mL (≈ 0.278 µM); MIC (C. ramosum): 0.78 µg/mL (≈ 2.17 µM); MIC ([23]; KYA27337): 0.2 µg/mL (≈ 0.556 µM); MIC (Pst micros UPI 5464-1): 0.05 µg/mL (≈ 0.139 µM); MIC [24]: 0.1 µg/mL (≈ 0.278 µM)
Cc1c(N2C[C@@H](C)[C@H](N)C2)c(F)cc2c(=O)c(C(=O)O)cn(C3CC3)c12 (relative stereo) [Ex. 27, 7-(3,4-trans-3-Amino-4-methyl-1-pyrrolidinyl)-1-cyclopropyl-6-fluoro-1,4-dihydro-8-methyl-4-oxo-3-quinolinecarboxylic acid] | 0.0125 (≈ 0.0348 µM) | 0.025 (≈ 0.0696 µM) | 6.3 (≈ 0.0175 µM) | 0.025 (≈ 0.0696 µM) | 0.05 (≈ 0.139 µM) | 0.025 (≈ 0.0696 µM) | 6.3 (≈ 0.0175 µM) | 0.2 (≈ 0.556 µM) | 0.025 (≈ 0.0696 µM) | 0.05 (≈ 0.139 µM) | 0.05 (≈ 0.139 µM) | 6.3 (≈ 0.0175 µM) | 0.025 (≈ 0.0696 µM) | 6.3 (≈ 0.0175 µM) | 0.0125 (≈ 0.0348 µM) | 0.025 (≈ 0.0696 µM) | 0.025 (≈ 0.0696 µM) | 0.39 (≈ 1.09 µM) | 0.025 (≈ 0.0696 µM) | 0.1 (≈ 0.278 µM) | MIC [12, 28]: 0.0063 µg/mL (≈ 0.0175 µM); MIC (P. aeruginosa IFO 12689): 0.39 µg/mL (≈ 1.09 µM); MIC (P. cepacia GIFU 518): 0.2 µg/mL (≈ 0.556 µM); MIC (P. maltophilia GIFU 2491): 0.05 µg/mL (≈ 0.139 µM); MIC [16]: 0.1 µg/mL (≈ 0.278 µM); MIC (B. fragilis 0558): 0.05 µg/mL (≈ 0.139 µM); MIC (B. fragilis 25285): 0.05 µg/mL (≈ 0.139 µM); MIC (B. distasonis 8503): 0.39 µg/mL (≈ 1.09 µM); MIC [17]: 0.2 µg/mL (≈ 0.556 µM); MIC (F. varium KYA 8501): 0.78 µg/mL (≈ 2.17 µM); MIC [19]: 0.05 µg/mL (≈ 0.139 µM); MIC [20]: 0.78 µg/mL (≈ 2.17 µM); MIC [21]: 0.025 µg/mL (≈ 0.0696 µM); MIC [22]: 0.39 µg/mL (≈ 1.09 µM); MIC (C. perfringens KYA 13123): 0.1 µg/mL (≈ 0.278 µM); MIC (C. ramosum): 0.39 µg/mL (≈ 1.09 µM); MIC ([23]; KYA27337): 0.2 µg/mL (≈ 0.556 µM); MIC (Pst micros UPI 5464-1): 0.05 µg/mL (≈ 0.139 µM); MIC [24]: 0.1 µg/mL (≈ 0.278 µM)
